Measurements published in doi:10.1101/2025.08.21.671483v1, “In vitro and in vivo activity profiles of broad-spectrum bacterial ATP synthase inhibitors” (biorxiv, 2025).
≈ marks a conversion by molar mass, not a printed value. Where two headings read alike, the source gives them in different places. Where a SMILES comes first, the peptide text is derived from it. Bridges are numbered along the chain shown (N, C = ends). [ ]: non-standard residue; d: D form. The star is where a group is joined. Heptanoyl(5-Me) = CCC(C)CCCC(=O)*; Dab = NCC[C@H](N)C(=O)O

Key:
[1] = tested on: T1, E. coli ATCC 25922; experiment: microbe, parasite or virus in culture; design: species or system bacteria; CLSI broth microdilution MIC, no visible growth; details: Escherichia coli
T1 construct: ATCC 25922

[2] = tested on: T2, Escherichia coli ec308; experiment: microbe, parasite or virus in culture; design: species or system bacteria; CLSI broth microdilution MIC, no visible growth
T2 construct: ec308

[3] = tested on: T3, Escherichia coli ATCC 35218; experiment: microbe, parasite or virus in culture; design: species or system bacteria; CLSI broth microdilution MIC, no visible growth
T3 construct: ATCC 35218

[4] = tested on: T4, Escherichia coli 70122 CW-2007; experiment: microbe, parasite or virus in culture; design: species or system bacteria; CLSI broth microdilution MIC, no visible growth
T4 construct: 70122 CW-2007

[5] = tested on: T5, Escherichia coli ec305; experiment: microbe, parasite or virus in culture; design: species or system bacteria; CLSI broth microdilution MIC, no visible growth
T5 construct: ec305

[6] = tested on: T6, Escherichia coli ec302; experiment: microbe, parasite or virus in culture; design: species or system bacteria; CLSI broth microdilution MIC, no visible growth
T6 construct: ec302

[7] = tested on: T7, Escherichia coli ec310; experiment: microbe, parasite or virus in culture; design: species or system bacteria; CLSI broth microdilution MIC, no visible growth
T7 construct: ec310

[8] = tested on: T8, Escherichia coli 95882 CW-2011; experiment: microbe, parasite or virus in culture; design: species or system bacteria; CLSI broth microdilution MIC, no visible growth
T8 construct: 95882 CW-2011

[9] = tested on: T9, Escherichia coli ATCC BAA2471; experiment: microbe, parasite or virus in culture; design: species or system bacteria; CLSI broth microdilution MIC, no visible growth
T9 construct: ATCC BAA-2471

[10] = tested on: T10, Escherichia coli ec309; experiment: microbe, parasite or virus in culture; design: species or system bacteria; CLSI broth microdilution MIC, no visible growth
T10 construct: ec309

[11] = tested on: T11, Citrobacterfreundii ATCC 8090; experiment: organism not typed; design: species or system bacteria; CLSI broth microdilution MIC, no visible growth; details: read-out: Table 5 IMI MIC
T11 construct: ATCC 8090

[12] = tested on: T12, E. coli MC4100 lptD4213; experiment: microbe, parasite or virus in culture; details: Escherichia coli, MC4100LPTD4213, read-out: MIC
T12 construct: MC4100 lptD4213 membrane-compromised

[13] = tested on: T13, S. aureus ATCC 29740 (Newbould); experiment: microbe, parasite or virus in culture; design: species or system bacteria; CLSI broth microdilution MIC, no visible growth; details: Staphylococcus aureus
T13 construct: ATCC 29740 (Newbould)

[14] = tested on: T14, E. coli MC4100 WT; experiment: microbe, parasite or virus in culture; design: species or system bacteria; CLSI broth microdilution MIC, no visible growth; details: Escherichia coli, MC4100WT
T14 construct: MC4100 (ATCC 35695)

[15] = target: T15, S. aureus ATP synthase (Staphylococcus aureus, UniProt Q99SF0); experiment: ATP production by membrane vesicles, luciferase luminescence; format: biochemical; details: […] NADH, 1 mM ADP, 10 mM potassium phosphate; 30 min preincubation, 60 min reaction
T15 construct: gene atpE
Text: ATP production by membrane vesicles, luciferase luminescence on S. aureus ATP synthase

[16] = tested on: T16, E. coli MC4100 acrAB; experiment: microbe, parasite or virus in culture; details: Escherichia coli, MC4100ACRAB, read-out: MIC
T16 construct: MC4100 acrAB efflux-deficient

[17] = target: T17, E. coli ATP synthase (Escherichia coli, UniProt P68699); experiment: ATP production by membrane vesicles, luciferase luminescence; format: biochemical; details: […] NADH, 1 mM ADP, 10 mM potassium phosphate; 30 min preincubation, 60 min reaction
T17 construct: gene atpE
Text: ATP production by membrane vesicles, luciferase luminescence on E. coli ATP synthase

[18] = tested on: T1, E. coli ATCC 25922; experiment: microbe, parasite or virus in culture; design: species or system bacteria; CLSI broth microdilution MIC, no visible growth; details: Escherichia coli; remark: listed apart in the source
[19] = tested on: S. aureus ATCC 29740hemB; experiment: microbe, parasite or virus in culture; details: Staphylococcus aureus, ATCC29740HEMB, read-out: MIC

## CC(C)(O/N=C(\C(=O)N[C@@H]1C(=O)N2C(C(=O)[O-])=C(C[n+]3ccccc3)CS[C@H]12)c1csc(N)n1)C(=O)O [CAZ, ceftazidime]
[1]; ATCC25922, read-out: CAZ MIC
  MIC: 0.12 µg/mL (≈ 0.22 µM)
[2]; EC308, read-out: CAZ MIC
  MIC: 128 µg/mL (≈ 234 µM)
[3]; ATCC35218, read-out: CAZ MIC
  MIC: 0.25 µg/mL (≈ 0.457 µM)
[4]; 70122CW2007, read-out: CAZ MIC
  MIC: 64 µg/mL (≈ 117 µM)
[5]; EC305, read-out: CAZ MIC
  MIC: 1 µg/mL (≈ 1.83 µM)
[6]; EC302, read-out: CAZ MIC
  MIC: > 128 µg/mL
[7]; EC310, read-out: CAZ MIC
  MIC: 64 µg/mL (≈ 117 µM)
[8]; 95882CW2011, read-out: CAZ MIC
  MIC: 128 µg/mL (≈ 234 µM)
[9]; ATCCBAA2471, read-out: CAZ MIC
  MIC: > 128 µg/mL
[10]; EC309, read-out: CAZ MIC
  MIC: 64 µg/mL (≈ 117 µM)

## CCC(C)CCCC(=O)N[C@@H](CCN)C(=O)N[C@H](C(=O)N[C@@H](CCN)C(=O)N[C@H]1CCNC(=O)[C@H]([C@@H](C)O)NC(=O)[C@H](CCN)NC(=O)[C@H](CCN)NC(=O)[C@H](CC(C)C)NC(=O)[C@@H](CC(C)C)NC(=O)[C@H](CCN)NC1=O)[C@@H](C)O (stereo partly drawn) [CST, colistin] ({Heptanoyl(5-Me)}-[Dab]T[Dab][Dab][Dab][dL]L[Dab][Dab]T; lactam 4-C)
[1]; ATCC25922, read-out: CST MIC
  MIC: 1 µg/mL (≈ 0.865 µM)
[2]; EC308, read-out: CST MIC
  MIC: 0.5 µg/mL (≈ 0.433 µM)
[3]; ATCC35218, read-out: CST MIC
  MIC: 2 µg/mL (≈ 1.73 µM)
[4]; 70122CW2007, read-out: CST MIC
  MIC: 1 µg/mL (≈ 0.865 µM)
[5]; EC305, read-out: CST MIC
  MIC: 0.5 µg/mL (≈ 0.433 µM)
[6]; EC302, read-out: CST MIC
  MIC: 0.5 µg/mL (≈ 0.433 µM)
[7]; EC310, read-out: CST MIC
  MIC: 1 µg/mL (≈ 0.865 µM)
[8]; 95882CW2011, read-out: CST MIC
  MIC: 0.5 µg/mL (≈ 0.433 µM)
[9]; ATCCBAA2471, read-out: CST MIC
  MIC: 1 µg/mL (≈ 0.865 µM)
[10]; EC309, read-out: CST MIC
  MIC: 1 µg/mL (≈ 0.865 µM)

## C[C@@H](O)[C@H]1C(=O)N2C(C(=O)O)=C(SCCNC=N)C[C@H]12 [IMI, imipenem]
[11]
  MIC: 1 µg/mL (≈ 3.34 µM)

## C[C@@H](O)[C@H]1C(=O)N2C(C(=O)O)=C(S[C@@H]3CN[C@H](C(=O)N(C)C)C3)[C@H](C)[C@H]12 [MEM, meropenem]
[1]; ATCC25922, read-out: MEM MIC
  MIC: 0.06 µg/mL (≈ 0.156 µM)
[2]; EC308, read-out: MEM MIC
  MIC: 0.06 µg/mL (≈ 0.156 µM)
[3]; ATCC35218, read-out: MEM MIC
  MIC: 0.06 µg/mL (≈ 0.156 µM)
[4]; 70122CW2007, read-out: MEM MIC
  MIC: 0.06 µg/mL (≈ 0.156 µM)
[5]; EC305, read-out: MEM MIC
  MIC: 0.06 µg/mL (≈ 0.156 µM)
[6]; EC302, read-out: MEM MIC
  MIC: 0.06 µg/mL (≈ 0.156 µM)
[7]; EC310, read-out: MEM MIC
  MIC: 0.06 µg/mL (≈ 0.156 µM)
[8]; 95882CW2011, read-out: MEM MIC
  MIC: 4 µg/mL (≈ 10.4 µM)
[9]; ATCCBAA2471, read-out: MEM MIC
  MIC: > 32 µg/mL
[10]; EC309, read-out: MEM MIC
  MIC: 0.06 µg/mL (≈ 0.156 µM)

## O=C1CN(/N=C/c2ccc([N+](=O)[O-])o2)C(=O)N1 [NIT, nitrofurantoin]
[1]; ATCC25922, read-out: NIT MIC
  MIC: 8 µg/mL (≈ 33.6 µM)
[2]; EC308, read-out: NIT MIC
  MIC: 8 µg/mL (≈ 33.6 µM)
[3]; ATCC35218, read-out: NIT MIC
  MIC: 0.25 µg/mL (≈ 1.05 µM)
[4]; 70122CW2007, read-out: NIT MIC
  MIC: 32 µg/mL (≈ 134 µM)
[5]; EC305, read-out: NIT MIC
  MIC: 8 µg/mL (≈ 33.6 µM)
[6]; EC302, read-out: NIT MIC
  MIC: 16 µg/mL (≈ 67.2 µM)
[7]; EC310, read-out: NIT MIC
  MIC: 8 µg/mL (≈ 33.6 µM)
[8]; 95882CW2011, read-out: NIT MIC
  MIC: 8 µg/mL (≈ 33.6 µM)
[9]; ATCCBAA2471, read-out: NIT MIC
  MIC: 32 µg/mL (≈ 134 µM)
[10]; EC309, read-out: NIT MIC
  MIC: 16 µg/mL (≈ 67.2 µM)

## CN(C)[C@@H]1C(O)=C(C(N)=O)C(=O)[C@@]2(O)C(O)=C3C(=O)c4c(O)cccc4[C@@](C)(O)[C@H]3C[C@@H]12 [TET, tetracycline]
[1]; ATCC25922, read-out: TET MIC
  MIC: 1 µg/mL (≈ 2.25 µM)
[2]; EC308, read-out: TET MIC
  MIC: 128 µg/mL (≈ 288 µM)
[3]; ATCC35218, read-out: TET MIC
  MIC: 0.25 µg/mL (≈ 0.563 µM)
[5]; EC305, read-out: TET MIC
  MIC: > 128 µg/mL
[6]; EC302, read-out: TET MIC
  MIC: 2 µg/mL (≈ 4.5 µM)
[7]; EC310, read-out: TET MIC
  MIC: 2 µg/mL (≈ 4.5 µM)
[8]; 95882CW2011, read-out: TET MIC
  MIC: 1 µg/mL (≈ 2.25 µM)
[9]; ATCCBAA2471, read-out: TET MIC
  MIC: 128 µg/mL (≈ 288 µM)
[10]; EC309, read-out: TET MIC
  MIC: 2 µg/mL (≈ 4.5 µM)

## C[C@H]1CC[C@]2(NC1)O[C@H]1C[C@H]3[C@@H]4CC[C@H]5CC(NC[C@H](N)Cc6c[nH]c7ccccc67)CC[C@]5(C)[C@H]4CC[C@]3(C)[C@H]1[C@@H]2C (stereo partly drawn) [TM-247]
[12]
  MIC: 2 µg/mL (≈ 3.41 µM)
[13]; ATCC29740, read-out: TM-247 MIC
  MIC: 2 µg/mL (≈ 3.41 µM)
[14]; read-out: TM-247 MIC
  MIC: 16 µg/mL (≈ 27.3 µM)
[15]
  IC50: 1.06 ± 0.24 µM
[16]
  MIC: 4 µg/mL (≈ 6.82 µM)
[17]
  IC50: 2.12 ± 0.32 µM
[18]; ATCC25922, read-out: TM-247 MIC
  MIC: 8 µg/mL (≈ 13.6 µM)
[19]
  MIC: ≤ 0.25 µg/mL

## C[C@H]1CC[C@]2(NC1)O[C@H]1C[C@H]3[C@@H]4CC[C@H]5CC(NC[C@H](N)Cc6ccc(C(F)(F)F)cc6)CC[C@]5(C)[C@H]4CC[C@]3(C)[C@H]1[C@@H]2C (stereo partly drawn) [TM-303]
[12]
  MIC: 2 µg/mL (≈ 3.25 µM)
[13]; ATCC29740, read-out: TM-303 MIC
  MIC: 4 µg/mL (≈ 6.49 µM)
[14]; read-out: TM-303 MIC
  MIC: 16 µg/mL (≈ 26 µM)
[15]
  IC50: 1.32 ± 0.22 µM
[16]
  MIC: 4 µg/mL (≈ 6.49 µM)
[17]
  IC50: 3.15 ± 0.73 µM
[18]; ATCC25922, read-out: TM-303 MIC
  MIC: 8 µg/mL (≈ 13 µM)
[19]
  MIC: ≤ 0.25 µg/mL

## C[C@H]1CC[C@]2(NC1)O[C@H]1C[C@H]3[C@@H]4CC[C@H]5C[C@@H](O)CC[C@]5(C)[C@H]4CC[C@]3(C)[C@H]1[C@@H]2C [TO, tomatidine]
[12]
  MIC: > 128 µg/mL
[13]; ATCC29740, read-out: TO MIC
  MIC: > 128 µg/mL
[14]; read-out: TO MIC
  MIC: > 128 µg/mL
[16]
  MIC: > 128 µg/mL
[18]; ATCC25922, read-out: TO MIC
  MIC: > 128 µg/mL
[19]
  MIC: ≤ 0.25 µg/mL
